3 molecules from US8252825B2, “Angiotensin II receptor antagonists” (NicOx, priority 2007, dated 2012) can be followed below.

For orientation: EC50 means the concentration that produces a half-maximal response.

Molecules are shown by their SMILES.

For experiment [1], the system named is conscious telemetered dogs. Put plainly: Systolic blood pressure lowering after oral administration to conscious telemetered dogs. Format: in vivo, dog. Particulars: 10 mg/kg. The text has this:
Compounds 1 and 2 shown below were studied for systolic blood pressure lowering when orally administered to conscious telemetered dogs.

The subject of experiment [2] is isolated rabbit thoracic aorta preparations. Put plainly: Vessel relaxation assay in isolated rabbit thoracic aorta rings. Format: cell-based. Particulars: Oryctolagus cuniculus; rabbit aortic rings precontracted with noradrenaline, functional endothelium. On the procedure:
The ability of the compounds to induce vasorelaxation was tested in vitro in isolated rabbit thoracic aorta preparations (Wanstall J. C. et al., Br. J. Pharmacol., 134:463-472, 2001). Male New Zealand rabbits were anaesthetized with thiopental-Na (50 mg/kg, iv), sacrificed by exsanguinations and then the thorax was opened and the aorta dissected. Aortic ring preparations (4 mm in length) were set up in physiological salt solution (PSS) at 37° C. in small organ chambers (5 ml). The composition of PSS was (mM): NaCl 130, NaHCO3 14.9, KH2PO4 1.2, MgSO4 1.2, HEPES 10, CaCl2, ascorbic acid […] and glucose 1.1 (95% O2/5% CO2; pH 7.4). Each ring was mounted under 2 g passive tension. Isometric tension was recorded with a Grass transducer (Grass FT03) attached to a BIOPAC MP150 System. Preparations were allowed to equilibrate for 1 h, and then contracted submaximally with noradrenaline (NA, 1 μM) and, when the contraction was stable, acetylcholine (ACh, 10 μM) was added. A relaxant response to ACh indicated the presence of a functional endothelium. […] When a stable precontraction was reached, a cumulative concentration-response curve to either of the vasorelaxant agents was obtained in the presence of a functional endothelium. Each arterial ring was exposed to only one combination of inhibitor and vasorelaxant. […]
Example 3 and 4 were evaluated for vessel relaxation.

As to `CCCCc1nc(Cl)c(C(=O)OC(C)OC(=O)OCCCC[C@H](CO[N+](=O)[O-])O[N+](=O)[O-])n1Cc1ccc(-c2ccccc2-c2nnn[nH]2)cc1` (some centres unmarked) [Compound 1], in experiment [1] (1-6 h), the “Approximate change in systolic blood pressure (mmHg), 1-6 h” value is on record as −14 mmHg. Also, the “Approximate change in systolic blood pressure (mmHg), 6-12 h” value in experiment [1] (6-12 h) is recorded as −7 mmHg. Besides, the “Approximate change in systolic blood pressure (mmHg), 12-18 h” value in experiment [1] (12-18 h) worked out at 3 mmHg.

On to `CCOc1nc2cccc(C(=O)OC(C)(C)OC(=O)OCCC(C)[C@@H](O[N+](=O)[O-])[C@@H](C)O[N+](=O)[O-])c2n1Cc1ccc(-c2ccccc2-c2nnn[nH]2)cc1` (stereo partly drawn) [Example 4, 1-[({[(4R,5R)-3 Methyl-4,5-bis(nitrooxy)hexyl]oxy}carbonyl)oxy]-1-methylethyl 2-ethoxy-1-{[2′-(1H-tetrazol-5-yl)biphenyl-4-yl]methyl}-1H-benzimidazole-7-carboxylate], for which the EC50 in experiment [2] is 6.4 µM.

Consider `CCCCc1nc(Cl)c(C(=O)OC(C)OC(=O)OCCC(C)[C@@H](O[N+](=O)[O-])[C@@H](C)O[N+](=O)[O-])n1Cc1ccc(-c2ccccc2-c2nnn[nH]2)cc1` (stereo partly drawn) [Example 3, 1-[({[(4R,5R)-3-methyl-4,5-bis(nitrooxy)hexyl]oxy}carbonyl)oxy]ethyl 2-butyl-4-chloro-1-{[2′-(1H-tetrazol-5-yl)biphenyl-4-yl]methyl}-1H-imidazole-5-carboxylate], for which, in experiment [2], the 50% effective concentration (EC50) worked out at 8.5 µM.
